Literature values, collected in paper PMC9329312, “Decoding kinase-adverse event associations for small molecule kinase inhibitors” (Nature Communications, 2022).

Conditions: ref FAERS

CCOc1cc2ncc(C#N)c(Nc3ccc(OCc4ccccn4)c(Cl)c3)c2cc1NC(=O)/C=C/CN(C)C [neratinib]
0.3%: Lip swelling, % of Cases | Loss of consciousness, % of Cases | Metastases to liver, % of Cases | Metastases to lung, % of Cases | Musculoskeletal stiffness, % of Cases | Nasal dryness, % of Cases | Oral discomfort, % of Cases | Oral pain, % of Cases | Palmar-plantar erythrodysaesthesia syndrome, % of Cases
29.7%: Nausea, % of Cases
0.75%: Peripheral swelling, % of Cases
1.4%: Nasopharyngitis, % of Cases | Pain, % of Cases
1.6%: Metastases to central nervous system, % of Cases
0.225%: Joint swelling, % of Cases | Liver injury, % of Cases | Mastectomy, % of Cases | Nail discolouration, % of Cases | Oral mucosal blistering, % of Cases | Pancreatitis acute, % of Cases | Platelet count decreased, % of Cases | Pleural effusion, % of Cases | Productive cough, % of Cases
0.375%: Lung neoplasm malignant, % of Cases | Metastases to bone, % of Cases | Migraine, % of Cases | Muscular weakness, % of Cases | Nail disorder, % of Cases | Neutropenia, % of Cases | Pollakiuria, % of Cases
1.5%: Malaise, % of Cases
0.45%: Lethargy, % of Cases | Liver function test increased, % of Cases | Malignant neoplasm progression, % of Cases | Memory impairment, % of Cases | Nasal congestion, % of Cases | Neoplasm progression, % of Cases | Paraesthesia, % of Cases
0.075%: Intracranial artery dissection, % of Cases | Ischaemic stroke, % of Cases | Joint injury, % of Cases | Kidney infection, % of Cases | Klebsiella infection, % of Cases | Large intestinal haemorrhage, % of Cases | Large intestinal obstruction, % of Cases | Localised infection, % of Cases | Lower limb fracture, % of Cases | Lower respiratory tract infection, % of Cases | Lung cancer metastatic, % of Cases | Lymph node haemorrhage, % of Cases | Lymphocyte count decreased, % of Cases | Magnetic resonance imaging abnormal, % of Cases | Magnetic resonance imaging head abnormal, % of Cases | Malignant ascites, % of Cases | Malignant neoplasm of unknown primary site, % of Cases | Malignant pleural effusion, % of Cases | Medical procedure, % of Cases | Menopausal symptoms, % of Cases | Menstruation delayed, % of Cases | Mental impairment, % of Cases | Mesenteric artery stenosis, % of Cases | Metastases to abdominal cavity, % of Cases | Metastases to lymph nodes, % of Cases | Metastases to meninges, % of Cases | Metastases to peritoneum, % of Cases | Metastases to spine, % of Cases | Microcytic anaemia, % of Cases | Micturition urgency, % of Cases | Middle ear effusion, % of Cases | Monocyte count increased, % of Cases | Monoplegia, % of Cases | Mood swings, % of Cases | Mouth haemorrhage, % of Cases | Mouth swelling, % of Cases | Movement disorder, % of Cases | Myelosuppression, % of Cases | Myocardial infarction, % of Cases | Myopia, % of Cases | Nail growth abnormal, % of Cases | Nasal ulcer, % of Cases | Neoplasm malignant, % of Cases | Nervousness, % of Cases | Neuralgia, % of Cases | Neutrophil count increased, % of Cases | Nightmare, % of Cases | Oedema peripheral, % of Cases | Oesophageal pain, % of Cases | Onychalgia, % of Cases | Onychomycosis, % of Cases | Oral herpes, % of Cases | Orthostatic hypotension, % of Cases | Osteonecrosis of jaw, % of Cases | Oxygen saturation decreased, % of Cases | Oxygen saturation increased, % of Cases | PIK3CA-activated mutation, % of Cases | Pancreatic carcinoma, % of Cases | Pancreatic mass, % of Cases | Panic attack, % of Cases | Papilloedema, % of Cases | Papule, % of Cases | Paraesthesia oral, % of Cases | Paranasal sinus hypersecretion, % of Cases | Paranasal sinus hyposecretion, % of Cases | Pericardial effusion, % of Cases | Periorbital swelling, % of Cases | Pharyngitis, % of Cases | Photopsia, % of Cases | Photosensitivity reaction, % of Cases | Physical deconditioning, % of Cases | Physical disability, % of Cases | Platelet count increased, % of Cases | Pneumonitis, % of Cases | Poor quality sleep, % of Cases | Post procedural bile leak, % of Cases | Post procedural infection, % of Cases | Post procedural swelling, % of Cases | Prescribed overdose, % of Cases | Presyncope, % of Cases | Procedural pain, % of Cases | Proctalgia, % of Cases | Product administered to patient of inappropriate age, % of Cases | Product dose omission in error, % of Cases | Product identification number issue, % of Cases | Product name confusion, % of Cases | Product packaging quantity issue, % of Cases | Product prescribing error, % of Cases | Prosthesis implantation, % of Cases | Pulmonary embolism, % of Cases | Pulmonary hypertension, % of Cases | Pulmonary pain, % of Cases
1.1%: Neuropathy peripheral, % of Cases | Oropharyngeal pain, % of Cases | Pneumonia, % of Cases
0.15%: Intra-abdominal fluid collection, % of Cases | Irritability, % of Cases | Joint stiffness, % of Cases | Labelled drug-drug interaction medication error, % of Cases | Laboratory test abnormal, % of Cases | Ligament sprain, % of Cases | Liver disorder, % of Cases | Lung disorder, % of Cases | Lymphoedema, % of Cases | Malnutrition, % of Cases | Mass, % of Cases | Metastatic neoplasm, % of Cases | Mouth ulceration, % of Cases | Muscle twitching, % of Cases | Musculoskeletal chest pain, % of Cases | Neck pain, % of Cases | Negative thoughts, % of Cases | Nephrolithiasis, % of Cases | Nervous system disorder, % of Cases | Night sweats, % of Cases | Ocular hyperaemia, % of Cases | Onycholysis, % of Cases | Osteoarthritis, % of Cases | Palpitations, % of Cases | Paronychia, % of Cases | Postoperative wound infection, % of Cases | Product physical issue, % of Cases | Product use in unapproved indication, % of Cases | Product use issue, % of Cases | Pulmonary oedema, % of Cases
0.9%: Myalgia, % of Cases | Pain in extremity, % of Cases | Product administration error, % of Cases
11.6%: Off label use, % of Cases
0.8%: Onychoclasis, % of Cases
4.2%: Muscle spasms, % of Cases
0.5%: Pancreatitis, % of Cases
1.2%: Pruritus, % of Cases
1.3%: Prescribed underdose, % of Cases
7.8%: Product dose omission issue, % of Cases
